# Results published in patent US9732094B2, “Arylquinazolines” (Merck Patent GmbH, priority 2013, dated 2017).
# Where two headings read alike, the source gives them in different places.
# Assays:
# DNA-PK = DNA-PK (Homo sapiens (Human), UniProt P78527); assay: DNA-PK assay (biochemical), flashplate 33P-ATP kinase assay
# In short: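 Radiometric kinase reaction in streptavidin-coated flashplates, stopped with 200 mM EDTA, then 30 min room-temperature incubation and saline washes.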
# [1] = target: DNA-PK phosphorylation at serine 2056 (Homo sapiens (Human), UniProt P78527); assay: DNA-PK phosphorylation at serine 2056 (cellular), bleomycin-treated HCT116 cells, ELISA; format: cell-based; details: read-out: IC50 pDNA-PK
# In short: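 HCT116, MEM alpha + 10% FCS, 37 °C/10% CO2, seeded o/n. Cpd + 10 μM bleomycin, 6 h. ELISA, chemiluminescence; phospho/total DNA-PKcs ratio, DMSO = blank.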
# Kv11.1 (hERG) [2] = target: T1, Kv11.1 (hERG) (Homo sapiens (Human), UniProt Q12809); assay: Kv11.1 ion channel binding assay (Predictor hERG fluorescence polarisation); details: cells marked *: measured using hERG binding assay instead of hERG patch clamp assay; read-out: Ki [Kv1.11 hERG]
# T1 sequence (Q12809 whole entry): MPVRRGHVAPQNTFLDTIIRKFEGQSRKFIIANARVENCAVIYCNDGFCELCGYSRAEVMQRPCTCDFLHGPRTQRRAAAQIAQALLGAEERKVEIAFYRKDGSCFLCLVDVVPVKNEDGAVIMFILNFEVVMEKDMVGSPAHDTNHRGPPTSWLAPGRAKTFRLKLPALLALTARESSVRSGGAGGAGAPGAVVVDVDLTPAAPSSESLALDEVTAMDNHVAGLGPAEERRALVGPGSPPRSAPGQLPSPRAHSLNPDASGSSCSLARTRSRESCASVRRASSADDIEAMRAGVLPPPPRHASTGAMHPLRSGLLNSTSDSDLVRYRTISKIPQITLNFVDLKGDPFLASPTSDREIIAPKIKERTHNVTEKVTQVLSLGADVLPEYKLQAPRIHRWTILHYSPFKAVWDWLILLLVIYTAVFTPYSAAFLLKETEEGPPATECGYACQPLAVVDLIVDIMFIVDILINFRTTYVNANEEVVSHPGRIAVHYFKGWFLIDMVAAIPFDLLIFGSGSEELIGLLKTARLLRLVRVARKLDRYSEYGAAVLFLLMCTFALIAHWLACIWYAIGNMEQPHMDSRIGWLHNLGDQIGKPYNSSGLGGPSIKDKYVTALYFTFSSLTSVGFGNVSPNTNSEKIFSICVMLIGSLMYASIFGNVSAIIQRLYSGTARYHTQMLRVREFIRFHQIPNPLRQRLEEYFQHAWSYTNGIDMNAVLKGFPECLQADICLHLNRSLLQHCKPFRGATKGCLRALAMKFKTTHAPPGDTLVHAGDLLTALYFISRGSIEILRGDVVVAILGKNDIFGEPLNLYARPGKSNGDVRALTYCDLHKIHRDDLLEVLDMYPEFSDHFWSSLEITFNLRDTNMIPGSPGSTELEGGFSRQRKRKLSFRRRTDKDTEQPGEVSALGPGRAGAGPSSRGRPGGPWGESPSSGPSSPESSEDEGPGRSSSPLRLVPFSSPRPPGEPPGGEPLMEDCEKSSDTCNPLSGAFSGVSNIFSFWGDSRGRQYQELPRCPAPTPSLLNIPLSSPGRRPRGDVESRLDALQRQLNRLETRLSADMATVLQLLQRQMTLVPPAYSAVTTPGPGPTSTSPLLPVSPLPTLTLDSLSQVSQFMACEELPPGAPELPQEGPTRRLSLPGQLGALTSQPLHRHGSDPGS
# Experimental: D) Kv11.1 Ion Channel Binding Assay
# Kv11.1 (hERG=human ether a go-go related […]) is a cardiac K^+ channel which should if possible not interact with the test substances. This interaction is determined quantitatively with the aid of the Predictor™ hERG Fluorescence Polarizations (FP) Assays from Life Technologies. In the case of this assay principle, cardiomyocyte cell membranes having a certain proportion of Kv11.1 channels are isolated. A dye-labelled Kv11.1 binding partner gives a high fluorescence polarisation signal by interaction with the Kv11.1. In the case of displacement of the dye, a reduction in the fluorescence polarisation signal occurs.
# The assay is carried out automatically as follows: 15 nl of the test substances (highest concentration: 10 mM, 10 concentrations: dilution factors 1:3.16, DMSO) are transferred into an empty microtitre plates having 384 wells by means of an acoustic pipetter. 3 μl of the isolated membranes are subsequently added. Membranes and test substances are incubated at 22° C. for 15 min (+/−5 min). In the next step, the dye-labelled binding partner is added, followed by incubation at 22° C. After incubation for two hours, the measurement of the fluorescence polarisation is carried out on an Envision multimode Reader. Measured raw data are standardised with the aid of Genedata Assay Analyzer. The 1050 and % effect values are calculated in Genedata Condoseo.
# Kv11.1 (hERG) [3] = target: T1, Kv11.1 (hERG); assay: Kv11.1 (hERG) ion channel activity (patch clamp assay), HEK293 cells transfected with hERG gene
# [4] = cellular DNA-PK phosphorylation at serine 2056, HCT116
# [5] = cellular, HCT116 cells, 10 μM bleomycin, six hours
# [6] = Ki [Kv1.11 hERG], patch clamp, HEK293 transfected with hERG gene
# [7] = read-out: Ki [Kv1.11 hERG], patch clamp, HEK293 transfected with hERG gene
# [8] = Ki [Kv1.11 hERG], hERG patch clamp assay (cells without asterisk)
# [9] = read-out: Ki [Kv1.11 hERG], hERG patch clamp assay (cells without asterisk)
SMILES,IC50 (DNA-PK; biochemical DNA-PK assay),"IC50 [1, 4]",Ki (Kv11.1 (hERG) [3]; [8]),further results
"COc1ccc(C(O)c2cc(-c3ncnc4cc(N5CCOCC5)cc(F)c34)c(F)cc2Cl)nn1 (stereo not drawn) [Example 278, [2-chloro-4-fluoro-5-(5-fluoro-7-morpholin-4-ylquinazolin-4-yl)phenyl]-(6-methoxypyridazin-3-yl)methanol]",< 0.003 µM,< 0.5 µM,,Ki (Kv11.1 (hERG) [2]): > 25 µM
"COc1nnc(Cl)cc1C(O)c1ccc(F)c(-c2ncnc3cc(N4CCOCC4)ccc23)c1 (stereo not drawn) [Example 286, (6-Chloro-3-methoxy-pyridazin-4-yl)-[4-fluoro-3-(7-morpholin-4-yl-quinazolin-4-yl)-phenyl]methanol]",0.007 to 0.03 µM,5 to 10 µM,,Ki (Kv11.1 (hERG) [2]): > 25 µM
"Cc1nccnc1C(O)c1ccc(F)c(-c2ncnc3cc(N4CCOCC4)cc(F)c23)c1 (stereo not drawn) [Example 268, [4-Fluoro-3-(5-fluoro-7-morpholin-4-ylquinazolin-4-yl)phenyl]-(3-methylpyrazin-2-yl)methanol]",< 0.003 µM,< 0.5 µM,,Ki (Kv11.1 (hERG) [2]): > 25 µM
"[2H]C1([2H])OC([2H])([2H])C([2H])([2H])N(c2ccc3c(-c4cc(C(O)c5ccc(OC)nn5)c(Cl)cc4F)ncnc3c2)C1([2H])[2H] (single isomer, unassigned) [Example 262, [2-Chloro-4-fluoro-5-[7-(2,2,3,3,5,5,6,6-octadeuteriomorpholin-4-yl)quinazolin-4-yl]phenyl]-(6-methoxypyridazin-3-yl)methanol]",,,,Ki (Kv11.1 (hERG) [2]): > 25 µM
"OC(c1cccnn1)c1cc(-c2ncnc3cc(N4CCOCC4)ccc23)c(F)cc1F (stereo not drawn) [Example 48, [2,4-Difluoro-5-(7-morpholin-4-yl-quinazolin-4-yl)phenyl]-pyridazin-3-ylmethanol]",,,,"IC50 (DNA-PK; enzymatic, 5 μM ATP): 0.003 to 0.007 µM; IC50 [1, 5]: 0.5 to 5 µM; Ki (Kv11.1 (hERG) [3]; [6]): 15 to 25 µM"
"COc1cnc(Cl)c(C(O)c2ccc(F)c(-c3ncnc4cc(N5CCOCC5)ccc34)c2)n1 (stereo not drawn) [Example 26, (3-Chloro-6-methoxy-pyrazin-2-yl)-[4-fluoro-3-(7-morpholin-4-yl-quinazolin-4-yl)phenyl]-methanol]",,,,"IC50 (DNA-PK; enzymatic, 5 μM ATP): < 0.003 µM; IC50 [1, 5]: < 0.5 µM; Ki (Kv11.1 (hERG) [3]; [7]): > 25 µM"
"OC(c1cc(-c2ncnc3cc(N4CCOCC4)ccc23)c(F)cc1F)c1nncc2ccoc12 (stereo not drawn) [Example 336, [2,4-Difluoro-5-(7-morpholin-4-yl-quinazolin-4-yl)-phenyl]furo[2,3-d}-pyridazin-7-yl-methanol]",< 0.003 µM,< 0.5 µM,,Ki (Kv11.1 (hERG) [3]; [9]): > 25 µM
"NC(=O)C(c1ccc(F)c(-c2ncnc3cc(N4CCOCC4)ccc23)c1)c1nncc2sccc12 (stereo not drawn) [Example 285, 2-[4-Fluoro-3-(7-morpholin-4-yl-quinazolin-4-yl)-phenyl]-2-thieno-[2,3-d}pyridazin-4-yl-acetamide]",0.003 to 0.007 µM,10 to 30 µM,15 to 25 µM,
"Cn1nc(C(O)c2cc(-c3ncnc4cc(N5CCOCC5)ccc34)c(F)cc2Cl)ccc1=O (stereo not drawn) [Example 59, 6-{[2-Chloro-4-fluoro-5-(7-morpholin-4-yl-quinazolin-4-yl)phenyl]-hydroxymethyl}-2-methyl-2H-pyridazin-3-one]",,,,"IC50 (DNA-PK; enzymatic, 5 μM ATP): < 0.003 µM; IC50 [1, 5]: 0.5 to 5 µM; Ki (Kv11.1 (hERG) [3]; [6]): 15 to 25 µM"
"Cc1nccnc1[C@H](O)c1ccc(F)c(-c2ncnc3cc(N4CCOCC4)cnc23)c1 [Example 234, (R)-[4-Fluoro-3-(7-morpholin-4-yl-pyrido[3,2-d}-pyrimidin-4-yl)-phenyl]-(3-methyl-pyrazin-2-yl)-methanol]",< 0.003 µM,< 0.5 µM,,Ki (Kv11.1 (hERG) [3]; [9]): > 25 µM
"Cc1cc(C(O)c2ccc(F)c(-c3ncnc4cc(N5CCOCC5)ccc34)c2)n(C)c(=O)c1 (stereo not drawn) [Example 340, 6-{[4-Fluoro-3-(7-morpholin-4-yl-quinazolin-4-yl)-phenyl]hydroxy-methyl}-1,4-dimethyl-1H-pyridin-2-one]",< 0.003 µM,0.5 to 5 µM,,Ki (Kv11.1 (hERG) [3]; [9]): > 25 µM
"Cc1nccnc1C(C(N)=O)c1ccc(F)c(-c2ncnc3cc(N4CCOCC4)ccc23)c1 (stereo not drawn) [Example 327, 2-[4-Fluoro-3-(7-morpholin-4-yl-quinazolin-4-yl)-phenyl]-2-{3-methyl-pyrazin-2-yl)-acetamide]",0.007 to 0.03 µM,10 to 30 µM,,Ki (Kv11.1 (hERG) [3]; [9]): > 25 µM
"COC(=O)c1ccc(C(O)c2cc(-c3ncnc4cc(N5CCOCC5)ccc34)c(F)cc2Cl)nn1 (stereo not drawn) [Example 58, 6-{[2-Chloro-4-fluoro-5-(7-morpholin-4-yl-quinazolin-4-yl)phenyl]-hydroxymethyl}-pyridazine-3-carboxylic acid methyl ester]",,,,"IC50 (DNA-PK; enzymatic, 5 μM ATP): 0.003 to 0.007 µM; IC50 [1, 5]: 5 to 10 µM; Ki (Kv11.1 (hERG) [3]; [7]): > 25 µM"

# More lines, main results first:
IC50 (DNA-PK; biochemical DNA-PK assay),"IC50 [1, 4]",SMILES,Ki (Kv11.1 (hERG) [3]; [8]),further results
> 0.03 µM,,"COC(c1ccc(F)c(-c2ncnc3cc(N4CCOCC4)ccc23)c1)c1nccnc1C (stereo not drawn) [Example 352, 4-{2-Fluoro-5-[methoxy-(3-methyl-pyrazin-2-yl)methyl]-phenyl}-7-morpholin-4-ylquinazoline]",,Ki (Kv11.1 (hERG) [2]): > 25 µM
0.003 to 0.007 µM,0.5 to 5 µM,"COc1cncnc1C(O)c1cc(-c2ncnc3cc(N4CCOCC4)ccc23)ccc1Cl (stereo not drawn) [Example 408, [2-Chloro-5-(7-morpholin-4-yl-quinazolin-4-yl)-phenyl]-(5-methoxy-pyrimidin-4-yl)-methanol]",10 to 15 µM,
< 0.003 µM,0.5 to 5 µM,"NC(=O)C(c1cc(-c2ncnc3cc(N4CCOCC4)ccc23)c(F)cc1F)c1nccn2cccc12 (stereo not drawn) [Example 348, 2-[2,4-Difluoro-5-(7-morpholin-4-yl-quinazolin-4-yl)-phenyl]-2-pyrrolo-[1,2-a]pyrazin-1-yl-acetamide]",10 to 15 µM,
0.003 to 0.007 µM,5 to 10 µM,"Cc1nccnc1C(O)c1cc(-c2ncnc3cc(N4CCOCC4)ccc23)ccc1F (stereo not drawn) [Example 393, [2-Fluoro-5-(7-morpholin-4-yl-quinazolin-4-yl)-phenyl]-(3-methyl-pyrazin-2-yl)-methanol]",15 to 25 µM,
0.007 to 0.03 µM,5 to 10 µM,"Cn1c(C(O)c2cc(-c3ncnc4cc(N5CCOCC5)ccc34)ccc2F)cccc1=O (stereo not drawn) [Example 366, 6-{[2-Fluoro-5-(7-morpholin-4-yl-quinazolin-4-yl)-phenyl]hydroxy-methyl}-1-methyl-1H-pyridin-2-one]",,Ki (Kv11.1 (hERG) [3]; [9]): > 25 µM
0.003 to 0.007 µM,< 0.5 µM,"OC(c1cccnn1)c1cc(-c2ncnc3cc(N4CCOCC4)ccc23)ccc1Cl (stereo not drawn) [Example 479, (2-Chloro-5-(7-morpholin-4-yl-quinazolin-4-yl)-phenyl]pyridazin-3-yl-methanol]",15 to 25 µM,
0.003 to 0.007 µM,0.5 to 5 µM,"Cn1c(C(O)c2cc(-c3ncnc4cc(N5CCOCC5)ccc34)c(F)cc2F)cccc1=O (stereo not drawn) [Example 380, 6-{[2,4-Difluoro-5-(7-morpholin-4-yl-quinazolin-4-yl)-phenyl]hydroxy-methyl}-1-methyl-1H-pyridin-2-one]",,Ki (Kv11.1 (hERG) [3]; [9]): > 25 µM
< 0.003 µM,< 0.5 µM,"OC(c1ccc(F)c(-c2ncnc3cc(N4CCOCC4)ccc23)c1)c1ncccc1OC(F)(F)F (stereo not drawn) [Example 475, [4-Fluoro-3-(7-morpholin-4-yl-quinazolin-4-yl)-phenyl]-(3-trifluoro-methoxypyridin-2-yl)-methanol]",15 to 25 µM,
0.007 to 0.03 µM,< 0.5 µM,"OC(c1cc(-c2ncnc3cc(N4CCOCC4)ccc23)ccc1Cl)c1ncnc2ccoc12 (stereo not drawn) [Example 414, [2-Chloro-5-(7-morpholin-4-yl-quinazolin-4-yl)-phenyl]furo[3,2-d}-pyrimidin-4-yl-methanol]",10 to 15 µM,
